In one assay the test system is Staphylococcus aureus. Briefly: Antimicrobial activity against Staphylococcus aureus ATCC […] assessed as growth inhibition by agar dilution-streak method. Format: functional. In general terms: In agar dilution, organisms are placed on agar that contains the substance at set levels.
The subject of another assay is Escherichia coli. The assay is described as follows: Antimicrobial activity against Escherichia coli 9637 assessed as growth inhibition by agar dilution-streak method. Format: functional.
The test system of another assay is Klebsiella pneumoniae. Briefly: Antimicrobial activity against Klebsiella pneumoniae 10031 assessed as growth inhibition by agar dilution-streak method. It is filed as functional.
Assay [1] relates to Mycolicibacterium smegmatis. Briefly: Antimicrobial activity against Mycobacterium smegmatis 607 assessed as growth inhibition by agar dilution-streak method. Format: functional.
The test system of the next assay is Candida albicans. The assay is described as follows: Antimicrobial activity against Candida albicans 10231 assessed as growth inhibition by agar dilution-streak method. Format: functional.
For the next assay, the system named is Salmonella gallinarum. Briefly: Antimicrobial activity against Salmonella gallinarum 9184 assessed as growth inhibition by agar dilution-streak method.

In brackets after ≈: the same amount, converted by molar mass.

In general, MIC refers to the smallest concentration in the dilution series that meets the test's criterion for growth inhibition. Take `CCn1cc(C(=O)O)c(=O)c2cc3c(cc21)OCO3` [OXOLINIC ACID]: the MIC was 5 µg/mL (≈ 19.1 µM) with Staphylococcus aureus; 1.25 µg/mL (≈ 4.79 µM) in the assay with Escherichia coli; below 0.625 µg/mL in the assay with Klebsiella pneumoniae; above 40 µg/mL in assay [1]; above 40 µg/mL in the assay on Candida albicans; 1.25 µg/mL (≈ 4.79 µM) in the assay with Salmonella gallinarum.

Regarding `CCn1cc(C(=O)O)c(=O)c2ccc(C)cc21`, the MIC with Staphylococcus aureus was 40 µg/mL (≈ 173 µM); in the assay with Escherichia coli, 2.5 µg/mL (≈ 10.8 µM); in the assay on Klebsiella pneumoniae it was 10 µg/mL (≈ 43.2 µM); in assay [1], above 100 µg/mL; in the assay with Candida albicans, above 100 µg/mL; in the assay with Salmonella gallinarum, 1.25 µg/mL (≈ 5.41 µM).

With `CCn1cc(C(=O)O)c(=O)c2cccc(C)c21`, the MIC (in the assay with Staphylococcus aureus; in the assay on Escherichia coli; in the assay with Klebsiella pneumoniae; in assay [1]; in the assay with Candida albicans; with Salmonella gallinarum) was above 100 µg/mL in each case.

Regarding `CCn1cc(C(=O)O)c(=O)c2cc(Cl)ccc21`, the MIC in the assay with Staphylococcus aureus was 100 µg/mL (≈ 397 µM); with Escherichia coli, 20 µg/mL (≈ 79.5 µM); with Klebsiella pneumoniae, 10 µg/mL (≈ 39.7 µM); in assay [1] it was 100 µg/mL (≈ 397 µM); with Candida albicans it was above 40 µg/mL; with Salmonella gallinarum, 20 µg/mL (≈ 79.5 µM).

Take `CCn1c(C)c(C(=O)O)c(=O)c2cc3c(cc21)OCO3`: the MIC (in the assay with Staphylococcus aureus; in the assay on Escherichia coli; in the assay with Klebsiella pneumoniae; in assay [1]; with Candida albicans; in the assay on Salmonella gallinarum) was above 100 µg/mL throughout.

For `CCn1cc(C(=O)O)c(=O)c2cc(C)ccc21`, the MIC in the assay with Staphylococcus aureus is 40 µg/mL (≈ 173 µM); in the assay with Escherichia coli, 20 µg/mL (≈ 86.5 µM); in the assay with Klebsiella pneumoniae it was above 100 µg/mL; in assay [1], above 100 µg/mL; in the assay with Candida albicans it was above 100 µg/mL; in the assay with Salmonella gallinarum, 20 µg/mL (≈ 86.5 µM).

With `CCn1c(O)c(C(=O)O)c(=O)c2cc3c(cc21)OCO3`, the minimum inhibitory concentration (MIC) (in the assay with Staphylococcus aureus; in the assay on Escherichia coli; in the assay on Klebsiella pneumoniae; in assay [1]; in the assay with Candida albicans; in the assay with Salmonella gallinarum) was above 100 µg/mL throughout.
